Experimental findings from US9981909B2 (Janssen Pharmaceutica NV, priority 2008, dated 2018) are described below.

One assay addresses rat 5-HT7 receptor (Rattus norvegicus (Rat), UniProt P32305). Put plainly: r5-HT7 binding assay, competitive radioligand binding with [3H]5-CT. In a few lines:
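For h5-HT6, stably transfected HEK-293 membranes were exposed to 1.7 nM [3H]LSD plus increasing compound for 60 min at room temperature, with 10 μM clozapine for nonspecific binding. The r5-HT7 assay used [3H]5-CT competition on recombinant HEK-293 membranes, Ki derived from radioactivity counts.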

The target of a further assay is r5-HT7 receptor (Rattus norvegicus (Rat), UniProt P32305). Put plainly: HitHunter cAMP assay, antagonist testing against 100 nM 5-CT. Type of assay: cell-based. To be noted: antagonist testing, 100 nM 5-CT challenge, HEK-293 r5-HT7; read-out: R5HT7 cAMP pKb (converted). The procedure: (§1) Receptor binding was performed using membrane fractions prepared from the HEK-293 cell line recombinantly expressing rat 5-HT7 receptors (NCBI accession NM_022938). Compound affinity for the rat 5-HT7 receptor subtype was evaluated by competitive radioligand binding assays using 5-carboxamido[^3H]tryptamine ([^3H]5-CT) (Amersham Biosciences, cat. 90000403) detection. HitHunter™ cAMP assays are in-vitro based competitive immunoassays. The assay was performed on the HEK-293 cell line stably transfected with r5-HT7 receptor. Cells were pre-incubated with test compounds for 10 minutes. For antagonist testing, the cells were then challenged with 100 nM 5-CT for 20 minutes. Cells were then lysed and cAMP measured according to manufacturers protocol (Amersham, cat. NET791250UC) or [^3H]mesulergine (Amersham, cat. TRK1041). The assay was performed on membranes prepared from HEK-293 cells stably transfected with h5-HT6. Following centrifugation, membranes were resuspended and incubated for 60 min at room temperature with 1.7 nM [^3H]LSD in the presence of increasing concentration of test compounds. Nonspecific binding was defined in the presence of 10 μM clozapine (Tocris, cat. TRK1068). Homogenized HEK-293 membranes expressing the human SERT were incubated in 50 mM Tris-HCl (pH 7.5), 120 mM NaCl, 5 mM KCl with [^3H]-citalopram (3 nM) with or without test compounds. Nonspecific binding was determined in the presence of 10 μM fluoxetine. Radioactivity readouts and Ki values were performed as previously described for r5-HT7. […] Compounds were assayed in their free form or as salts, as indicated in the Examples section above.
A general note: Cyclic AMP is a second messenger, typically raised through Gs and lowered through Gi signalling.

Another assay has as its target human SERT (Homo sapiens (Human), UniProt P31645). Nature of the assay: human SERT binding assay with [3H]-citalopram on HEK-293 membranes. Particulars: read-out: hSERT binding Ki. Here is the method: as §1
The mark [1] stands for this setting: rat 5-HT7 receptor, HEK-293 membranes.

By Ki is commonly meant a dissociation constant, usually derived from enzyme kinetics or from competition with a known ligand.

Molecules are shown by their SMILES. Structures can show the parent of a compound that is named as a salt.

human SERT, sequence (P31645 whole entry): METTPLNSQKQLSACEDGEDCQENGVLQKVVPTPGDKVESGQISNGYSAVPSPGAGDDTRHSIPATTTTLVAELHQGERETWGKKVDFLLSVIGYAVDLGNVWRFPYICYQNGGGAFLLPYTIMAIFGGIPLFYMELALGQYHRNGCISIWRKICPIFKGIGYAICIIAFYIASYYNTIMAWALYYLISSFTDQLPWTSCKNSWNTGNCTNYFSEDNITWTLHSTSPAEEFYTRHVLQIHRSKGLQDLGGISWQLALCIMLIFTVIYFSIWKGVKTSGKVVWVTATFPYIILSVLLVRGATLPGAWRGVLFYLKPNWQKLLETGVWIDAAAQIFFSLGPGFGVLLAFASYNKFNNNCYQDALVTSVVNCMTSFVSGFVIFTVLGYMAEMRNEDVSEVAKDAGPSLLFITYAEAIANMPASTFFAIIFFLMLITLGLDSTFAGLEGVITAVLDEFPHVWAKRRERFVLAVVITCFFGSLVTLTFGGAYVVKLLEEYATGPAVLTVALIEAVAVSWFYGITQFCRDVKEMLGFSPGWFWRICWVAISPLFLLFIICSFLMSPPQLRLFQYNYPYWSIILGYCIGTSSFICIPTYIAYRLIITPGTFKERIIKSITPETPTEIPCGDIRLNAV
r5-HT7 receptor, sequence (P32305 1-435): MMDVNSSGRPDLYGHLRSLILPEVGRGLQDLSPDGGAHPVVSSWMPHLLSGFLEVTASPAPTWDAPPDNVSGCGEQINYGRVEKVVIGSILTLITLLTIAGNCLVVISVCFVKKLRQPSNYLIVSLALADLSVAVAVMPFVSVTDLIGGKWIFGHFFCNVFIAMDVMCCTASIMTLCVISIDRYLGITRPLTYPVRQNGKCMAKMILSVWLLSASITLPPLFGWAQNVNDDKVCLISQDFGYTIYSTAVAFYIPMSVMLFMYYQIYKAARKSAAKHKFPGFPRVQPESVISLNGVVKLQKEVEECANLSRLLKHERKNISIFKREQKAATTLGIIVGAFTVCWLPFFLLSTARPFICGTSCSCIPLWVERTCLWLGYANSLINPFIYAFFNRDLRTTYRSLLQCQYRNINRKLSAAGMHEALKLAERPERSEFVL
rat 5-HT7 receptor, sequence (P32305 1-435): as above

As for `Clc1ccc2c(c1)CCC2Oc1ccc(Br)cc1OC1CNC1` (racemic) [Example 152, (±)-3-[5-Bromo-2-(5-chloro-indan-1-yloxy)-phenoxy]-azetidine], the Ki on rat 5-HT7 receptor (setting [1]) amounted to 19 nM; on human SERT, 25 nM. The Kb at r5-HT7 receptor was 39.8 nM.
The matching figures for `CCN1CC(Oc2cc(Br)ccc2OCc2cccc(Cl)c2)C1` [Example 6, 3-[5-Bromo-2-(3-chloro-benzyloxy)-phenoxy]-1-ethyl-azetidine]: 6 nM, 249 nM and 3.98 nM.
The matching figures for `Clc1ccc(OCc2ccccc2)c(OC2CNC2)c1` [Example 40, 3-(2-Benzyloxy-5-chloro-phenoxy)-azetidine]: 9 nM, 43 nM and 39.8 nM.
As for `O=C(c1ccc2ccccc2c1)c1ccc(Br)cc1OC1CNC1` [Example 287, [2-(Azetidin-3-yloxy)-4-bromo-phenyl]-naphthalen-2-yl-methanone], the Ki was 15 nM at rat 5-HT7 receptor (rat 5-HT7, HEK-293 membranes) and 14 nM at human SERT. The Kb at r5-HT7 receptor is 63.1 nM.
Consider `FC(F)(F)c1cccc(COc2ccc(Br)cc2OC2CNC2)c1` [Example 8, 3-[5-Bromo-2-(3-trifluoromethyl-benzyloxy)-phenoxy]-azetidine], for which the inhibition constant (Ki) on rat 5-HT7 receptor (setting [1]) came out at 6 nM; at human SERT, 4 nM. Besides, the Kb on r5-HT7 receptor is 7.94 nM.
The matching figures for `CC(Oc1ccc(Cl)cc1OC1CNC1)c1cccc(Cl)c1` (racemic) [Example 114, (±)-3-[5-Chloro-2-[1-(3-chloro-phenyl)-ethoxly]-phenoxy]-azetidine]: 14 nM, 75 nM and 31.6 nM.
The matching figures for `Clc1ccc(OCc2ccc(Cl)c(Cl)c2)c(OC2CNC2)c1` [Example 50, 3-[5-Chloro-2-(3,4-dichloro-benzyloxy)-phenoxy]-azetidine]: 10 nM, 5 nM and 31.6 nM.
Turning to `Clc1ccc(COc2ccc(Br)cc2OC2CNC2)cc1` [Example 14, 3-[5-Bromo-2-(4-chloro-benzyloxy)-phenoxy]-azetidine trifluoroacetate], the Ki on rat 5-HT7 receptor (setting [1]) was determined as 12 nM; on human SERT, 52 nM. Further, the Kb at r5-HT7 receptor was 158 nM.
The matching figures for `FC(F)(F)Oc1cccc(COc2ccc(Br)cc2OC2CNC2)c1` [Example 7, 3-[5-Bromo-2-(3-trifluoromethoxy-benzyloxy)-phenoxy]-azetidine]: 10 nM, 23 nM and 63.1 nM.
The matching figures for `CCN1CC(Oc2cc(Br)ccc2OCc2cccc(F)c2)C1` [Example 18, 3-[5-Bromo-2-(3-fluoro-benzyloxy)-phenoxy]-1-ethyl-azetidine]: 5 nM, 435 nM and 1.58 nM.
The matching figures for `Clc1ccc(OC2Cc3ccccc3C2)c(OC2CNC2)c1` [Example 173, 3-[5-Chloro-2-(indan-2-yloxy)-phenoxy]-azetidine]: 7 nM, 56 nM and 7.94 nM.
For the molecule `Clc1cccc(COc2ccc(Br)cc2OC2CN(C3CCC3)C2)c1` [Example 3, 3-[5-Bromo-2-(3-chloro-benzyloxy)-phenoxy]-1-cyclobutyl-azetidine], the Ki at rat 5-HT7 receptor (setting [1]) turned out to be 18 nM; at human SERT, 381 nM. Besides, the Kb at r5-HT7 receptor was 2.51 nM.
The matching figures for `FC(F)(F)c1cc(COc2ccc(Cl)cc2OC2CNC2)ccc1Cl` [Example 49, 3-[5-Chloro-2-(4-chloro-3-trifluoromethyl-benzyloxy)-phenoxy]-azetidine]: 13 nM, 40 nM and 25.1 nM.
The matching figures for `N#Cc1cccc(COc2ccc(Br)cc2OC2CNC2)c1` [Example 9, 3-[2-(Azetidin-3-yloxy)-4-bromo-phenoxymethyl]-benzonitrile]: 11 nM, 2 nM and 20 nM.
Consider `Fc1ccc(COc2ccc(Cl)cc2OC2CNC2)cc1` [Example 25, 3-[5-Chloro-2-(4-fluoro-benzyloxy)-phenoxy]-azetidine hydrochloride], for which the values for the Ki on rat 5-HT7 receptor (setting [1]) and at human SERT were 18 nM and 19 nM, respectively. Further, the Kb at r5-HT7 receptor is 39.8 nM.
The matching figures for `CC(C)N1CC(Oc2cc(Br)ccc2OCc2cccc(Cl)c2)C1` [Example 5, 3-[5-Bromo-2-(3-chloro-benzyloxy)-phenoxy]-1-isopropyl-azetidine]: 8 nM, 194 nM and 5.01 nM.
The matching figures for `Fc1ccc2c(c1)C(Oc1ccc(Cl)cc1OC1CNC1)CC2` (racemic) [Example 150, (±)-3-[5-Chloro-2-(6-fluoro-indan-1-yloxy)-phenoxy]-azetidine]: 10 nM, 13 nM and 10 nM.
On to `Brc1ccc(OC2Cc3ccccc3C2)c(OC2CNC2)c1` [Example 174, 3-[5-Bromo-2-(indan-2-yloxy)-phenoxy]-azetidine], for which the Ki on rat 5-HT7 receptor (setting [1]) turned out to be 6 nM; at human SERT it was 42 nM. For the same molecule, on r5-HT7 receptor, the Kb is 6.31 nM.
The matching figures for `Clc1ccc(OCc2ccccc2Cl)c(OC2CNC2)c1` [Example 35, 3-[5-Chloro-2-(2-chloro-benzyloxy)-phenoxy]-azetidine trifluroacetate]: 23 nM, 3 nM and 1000 nM.
The matching figures for `CC(C)N1CC(Oc2cc(F)ccc2OCc2ccc(C(F)(F)F)o2)C1` [Example 209, 3-[5-Fluoro-2-(5-trifluoromethyl-furan-2-ylmethoxy)-phenoxy]-1-isopropyl-azetidine]: 13 nM, 20 nM and 20 nM.
The matching figures for `Clc1ccc(COc2ccc(Cl)cc2OC2CNC2)cc1` [Example 36, 3-[5-Chloro-2-(4-chloro-benzyloxy)-phenoxy]-azetidine trifluoroacetate]: 15 nM, 36 nM and 794 nM.
On to `Fc1ccc(COc2ccc(Br)cc2OC2CNC2)cc1Cl` [Example 12, 3-[5-Bromo-2-(3-chloro-4-fluoro-benzyloxy)-phenoxy]-azetidine], for which the Ki was 11 nM at rat 5-HT7 receptor (setting [1]) and 6 nM at human SERT. The Kb at r5-HT7 receptor is 3.16 nM.
In the case of `O=C(c1ccc2c(c1)OCO2)c1ccc(Br)cc1OC1CNC1` [Example 289, [2-(Azetidin-3-yloxy)-4-bromo-phenyl]-benzo[1,3]dioxol-5-yl-methanone], the inhibition constant Ki at rat 5-HT7 receptor (rat 5-HT7, HEK-293 membranes) was determined as 34 nM; on human SERT it was 437 nM. On r5-HT7 receptor, the Kb is 39.8 nM.
The matching figures for `Clc1ccc(Oc2ccc3ccccc3c2)c(OC2CNC2)c1` [Example 260, 3-[5-Chloro-2-(naphthalen-2-yloxy)-phenoxy]-azetidine]: 16 nM, 2 nM and 1000 nM.
At rat 5-HT7 receptor (setting [1]), `Cc1ccc2c(c1)C(Oc1ccc(Br)cc1OC1CNC1)CC2` (racemic) [Example 156, (±)-3-[5-Bromo-2-(6-methyl-indan-1-yloxy)-phenoxy]-azetidine] yielded a Ki of 252 nM. For the same molecule, the Kb on r5-HT7 receptor is more than 10000 nM.
With `CN1CC(Oc2cc(F)ccc2OCc2cccc(Cl)c2)C1` [Example 203, 3-[2-(3-Chloro-benzyloxy)-5-fluoro-phenoxy]-1-methyl-azetidine], the Ki at rat 5-HT7 receptor (setting [1]) turned out to be 24 nM; at human SERT, 271 nM. Further, at r5-HT7 receptor, the Kb was 20 nM.
The matching figures for `N#Cc1cccc(COc2ccc(Cl)cc2OC2CNC2)c1` [Example 34, 3-[2-(Azetidin-3-yloxy)-4-chloro-phenoxymethyl]-benzonitrile]: 29 nM, 1 nM and 39.8 nM.
As to `Brc1cccc(Oc2ccc(Br)cc2OC2CNC2)c1` [Example 245, 3-[5-Bromo-2-(3-bromo-phenoxy)-phenoxy]-azetidine], the Ki on rat 5-HT7 receptor (rat 5-HT7, HEK-293 membranes) stood at 9 nM. Besides, the Kb on r5-HT7 receptor was 200 nM.
The matching figures for `O=C(c1ccc(Cl)cc1)c1ccc(Br)cc1OC1CNC1` [Example 281, [2-(Azetidin-3-yloxy)-4-bromo-phenyl]-(4-chloro-phenyl)-methanone]: 48 nM and 316 nM.
As for `CC(Oc1ccc(Br)cc1OC1CNC1)c1cccc(C(F)(F)F)c1` (racemic) [Example 112, (±)-3-[5-Bromo-2-[1-(3-trifluoromethyl-phenyl)-ethoxy]-phenoxy]-azetidine], affinity on rat 5-HT7 receptor (setting [1]) was put at a Ki of 23 nM. Further, the Kb on r5-HT7 receptor was 31.6 nM.
The matching figures for `Clc1ccc2c(c1)C(Oc1ccc(Br)cc1OC1CNC1)CC2` (racemic) [Example 153, (±)-3-[5-Bromo-2-(6-chloro-indan-1-yloxy)-phenoxy]-azetidine]: 84 nM and 63.1 nM.
